The numbers were not newly measured in patent publication US20060264455A1 (priority 2005, published 2006), which cites them from elsewhere.

In this data set the test system is 6 Hz limbic seizures (corneal stimulation). Conditions: established antiepileptic drugs; cited from earlier work.
On to `NC(=O)N1c2ccccc2C=Cc2ccccc21` [carbamazepine], for which the “Efficacy in the 6 Hz psychomotor seizure model” value (“Efficacy” for short) is “limited efficacy”. On to `Nc1nnc(-c2cccc(Cl)c2Cl)c(N)n1` [lamotrigine], for which the “Efficacy” value is recorded as “limited efficacy”. Take `O=C1NC(=O)C(c2ccccc2)(c2ccccc2)N1` [phenytoin]: the “Efficacy” value is recorded as “limited efficacy”. On to `CC1(C)O[C@@H]2[C@@H](CO[C@@]3(COS(N)(=O)=O)OC(C)(C)O[C@@H]23)O1` [topiramate], for which the “Efficacy” value was “limited efficacy”.
